Reference: PubChem BioAssay (NCI)
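GI50: concentration for 50% inhibition of growth. TGI: total growth inhibition.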

Assays:
Assay in all cases: inhibition of tumour cell growth, NCI panel, 384-well format
786-0 renal = test system: 786-0 renal
A498 renal = test system: A498 renal
A549 NSCLC = test system: A549 NSCLC
ACHN renal = test system: ACHN renal
BT-549 breast = test system: BT-549 breast
CAKI-1 renal = test system: CAKI-1 renal
CCRF-CEM leukemia = test system: CCRF-CEM leukemia
COLO 205 colon = test system: COLO 205 colon
DU-145 prostate = test system: DU-145 prostate
EKVX NSCLC = test system: EKVX NSCLC
HCC-2998 colon = test system: HCC-2998 colon
HCT-116 colon = test system: HCT-116 colon
HCT-15 colon = test system: HCT-15 colon
HL-60(TB) leukemia = test system: HL-60(TB) leukemia
HOP-62 NSCLC = test system: HOP-62 NSCLC
HOP-92 NSCLC = test system: HOP-92 NSCLC
HS 578T breast = test system: HS 578T breast
HT29 colon = test system: HT29 colon
IGROV1 ovarian = test system: IGROV1 ovarian
K-562 leukemia = test system: K-562 leukemia
KM12 colon = test system: KM12 colon
LOX IMVI melanoma = test system: LOX IMVI melanoma
M14 melanoma = test system: M14 melanoma
MALME-3M melanoma = test system: MALME-3M melanoma
MCF7 breast = test system: MCF7 breast
MDA-MB-231 breast = test system: MDA-MB-231 breast
MDA-MB-468 breast = test system: MDA-MB-468 breast
MOLT-4 leukemia = test system: MOLT-4 leukemia
NCI-H226 lung = test system: NCI-H226 lung
NCI-H23 lung = test system: NCI-H23 lung
NCI-H322M lung = test system: NCI-H322M lung
NCI-H522 lung = test system: NCI-H522 lung
NCI/ADR-RES ovarian = test system: NCI/ADR-RES ovarian
OVCAR-3 ovarian = test system: OVCAR-3 ovarian
OVCAR-4 ovarian = test system: OVCAR-4 ovarian
OVCAR-5 ovarian = test system: OVCAR-5 ovarian
PC-3 prostate = test system: PC-3 prostate
RPMI-8226 leukemia = test system: RPMI-8226 leukemia
RXF 393 renal = test system: RXF 393 renal
SF-268 CNS = test system: SF-268 CNS
SF-295 CNS = test system: SF-295 CNS
SF-539 CNS = test system: SF-539 CNS
SK-MEL-2 melanoma = test system: SK-MEL-2 melanoma
SK-MEL-28 melanoma = test system: SK-MEL-28 melanoma
SK-MEL-5 melanoma = test system: SK-MEL-5 melanoma
SK-OV-3 ovarian = test system: SK-OV-3 ovarian
SN12C renal = test system: SN12C renal
SNB-19 CNS = test system: SNB-19 CNS
SNB-75 CNS = test system: SNB-75 CNS
SR leukemia = test system: SR leukemia
SW-620 colon = test system: SW-620 colon
T-47D breast = test system: T-47D breast
TK-10 renal = test system: TK-10 renal
U251 glioblastoma = test system: U251 glioblastoma
UACC-257 melanoma = test system: UACC-257 melanoma
UACC-62 melanoma = test system: UACC-62 melanoma
UO-31 renal = test system: UO-31 renal

How did the GI50 ([…]-0 renal) turn out when `COc1cc2c(cc1F)C(c1ccccc1Cl)=Nc1c(n[nH]c1C)N2` was run?
Its GI50 is 0.508 µM.

What about the TGI (786-0 renal) of the same compound?
Its TGI is 11.9 µM.

What about the GI50 (A498 renal) of the same compound?
The GI50 was 0.498 µM.

And the TGI (A498 renal)?
The TGI was 17.2 µM.

What about the GI50 (A549 NSCLC) of the same compound?
The GI50 was 0.599 µM.

What about the TGI (A549 NSCLC) of the same compound?
Its TGI is 15.6 µM.

What about the GI50 (ACHN renal) of the same compound?
Its GI50 is 1.35 µM.

And the TGI (ACHN renal)?
The TGI was 13.3 µM.

What about the GI50 (BT-549 breast) of the same compound?
The GI50 was 0.231 µM.

What about the TGI (BT-549 breast) of the same compound?
The TGI was 1.08 µM.

And the GI50 (CAKI-1 renal)?
The GI50 was 0.512 µM.

And the TGI (CAKI-1 renal)?
Its TGI is 4.16 µM.

What about the GI50 (CCRF-CEM leukemia) of the same compound?
Its GI50 is 0.145 µM.

What about the TGI (CCRF-CEM leukemia) of the same compound?
The TGI was 0.288 µM.

And the GI50 (COLO 205 colon)?
Its GI50 is 0.367 µM.

And the TGI (COLO 205 colon)?
Its TGI is 12.1 µM.

And the GI50 (DU-145 prostate)?
Its GI50 is 2.02 µM.

And the TGI (DU-145 prostate)?
The TGI was 13 µM.

And the GI50 (EKVX NSCLC)?
The GI50 was 0.597 µM.

And the TGI (EKVX NSCLC)?
Its TGI is 13.8 µM.

What about the GI50 (HCC-2998 colon) of the same compound?
Its GI50 is 0.108 µM.

What about the TGI (HCC-2998 colon) of the same compound?
Its TGI is 16.7 µM.

What about the GI50 (HCT-116 colon) of the same compound?
The GI50 was 0.393 µM.

What about the TGI (HCT-116 colon) of the same compound?
The TGI was 15.1 µM.

And the GI50 (HCT-15 colon)?
The GI50 was 0.304 µM.

And the TGI (HCT-15 colon)?
The TGI was 19.5 µM.

What about the GI50 (HL-60(TB) leukemia) of the same compound?
The GI50 was 0.166 µM.

And the TGI (HL-60(TB) leukemia)?
The TGI was 0.306 µM.

And the GI50 (HOP-62 NSCLC)?
The GI50 was 0.521 µM.

What about the TGI (HOP-62 NSCLC) of the same compound?
Its TGI is 14.1 µM.

What about the GI50 (HOP-92 NSCLC) of the same compound?
Its GI50 is 0.96 µM.

What about the TGI (HOP-92 NSCLC) of the same compound?
Its TGI is 8.17 µM.

What about the GI50 (HS 578T breast) of the same compound?
Its GI50 is 0.19 µM.

And the TGI (HS 578T breast)?
Its TGI is 0.464 µM.

And the GI50 (HT29 colon)?
Its GI50 is 0.313 µM.

And the TGI (HT29 colon)?
Its TGI is 12.5 µM.

And the GI50 (IGROV1 ovarian)?
Its GI50 is 0.679 µM.

What about the TGI (IGROV1 ovarian) of the same compound?
Its TGI is 9.69 µM.

And the GI50 (K-562 leukemia)?
The GI50 was 0.252 µM.

What about the TGI (K-562 leukemia) of the same compound?
Its TGI is 13.6 µM.

And the GI50 (KM12 colon)?
The GI50 was 0.274 µM.

What about the TGI (KM12 colon) of the same compound?
Its TGI is 12.1 µM.

What about the GI50 (LOX IMVI melanoma) of the same compound?
The GI50 was 0.528 µM.

What about the TGI (LOX IMVI melanoma) of the same compound?
The TGI was 8.78 µM.

And the GI50 (M14 melanoma)?
Its GI50 is 0.339 µM.

What about the TGI (M14 melanoma) of the same compound?
Its TGI is 15.9 µM.

What about the GI50 (MALME-3M melanoma) of the same compound?
The GI50 was 12.6 µM.

What about the TGI (MALME-3M melanoma) of the same compound?
The TGI was 25.2 µM.

And the GI50 (MCF7 breast)?
The GI50 was 0.502 µM.

What about the TGI (MCF7 breast) of the same compound?
Its TGI is 19.8 µM.

And the GI50 (MDA-MB-231 breast)?
Its GI50 is 0.65 µM.

And the TGI (MDA-MB-231 breast)?
The TGI was 16.8 µM.

And the GI50 (MDA-MB-468 breast)?
The GI50 was 0.18 µM.

What about the TGI (MDA-MB-468 breast) of the same compound?
The TGI was 0.387 µM.

What about the GI50 (MOLT-4 leukemia) of the same compound?
Its GI50 is 0.146 µM.

And the TGI (MOLT-4 leukemia)?
Its TGI is 0.283 µM.

And the GI50 (NCI-H226 lung)?
The GI50 was 0.688 µM.

And the TGI (NCI-H226 lung)?
The TGI was 2.66 µM.

What about the GI50 (NCI-H23 lung) of the same compound?
The GI50 was 0.69 µM.

And the TGI (NCI-H23 lung)?
Its TGI is 16.5 µM.

What about the GI50 (NCI-H322M lung) of the same compound?
Its GI50 is 4.44 µM.

And the TGI (NCI-H322M lung)?
The TGI was 19.9 µM.

What about the GI50 (NCI-H522 lung) of the same compound?
Its GI50 is 0.202 µM.

And the TGI (NCI-H522 lung)?
Its TGI is 0.506 µM.

What about the GI50 (NCI/ADR-RES ovarian) of the same compound?
Its GI50 is 0.304 µM.

What about the TGI (NCI/ADR-RES ovarian) of the same compound?
Its TGI is 16 µM.

And the GI50 (OVCAR-3 ovarian)?
The GI50 was 0.225 µM.

And the TGI (OVCAR-3 ovarian)?
The TGI was 0.823 µM.

And the GI50 (OVCAR-4 ovarian)?
Its GI50 is 2.26 µM.

And the TGI (OVCAR-4 ovarian)?
Its TGI is 19.8 µM.

And the GI50 (OVCAR-5 ovarian)?
The GI50 was 5.32 µM.

What about the TGI (OVCAR-5 ovarian) of the same compound?
Its TGI is 19.8 µM.

What about the GI50 (PC-3 prostate) of the same compound?
Its GI50 is 0.709 µM.

And the TGI (PC-3 prostate)?
The TGI was 21.1 µM.

And the GI50 (RPMI-8226 leukemia)?
Its GI50 is 0.253 µM.

What about the TGI (RPMI-8226 leukemia) of the same compound?
The TGI was 7.32 µM.

And the GI50 (RXF 393 renal)?
Its GI50 is 0.207 µM.

What about the TGI (RXF 393 renal) of the same compound?
The TGI was 1.23 µM.

What about the GI50 (SF-268 CNS) of the same compound?
Its GI50 is 0.37 µM.

And the TGI (SF-268 CNS)?
The TGI was 1.77 µM.

And the GI50 (SF-295 CNS)?
Its GI50 is 0.452 µM.

What about the TGI (SF-295 CNS) of the same compound?
Its TGI is 16.2 µM.

And the GI50 (SF-539 CNS)?
Its GI50 is 0.351 µM.

And the TGI (SF-539 CNS)?
Its TGI is 1.5 µM.

What about the GI50 (SK-MEL-2 melanoma) of the same compound?
Its GI50 is 0.459 µM.

What about the TGI (SK-MEL-2 melanoma) of the same compound?
The TGI was 4.31 µM.

What about the GI50 (SK-MEL-28 melanoma) of the same compound?
The GI50 was 0.778 µM.

And the TGI (SK-MEL-28 melanoma)?
The TGI was 18.6 µM.

And the GI50 (SK-MEL-5 melanoma)?
The GI50 was 0.236 µM.

And the TGI (SK-MEL-5 melanoma)?
Its TGI is 12 µM.

And the GI50 (SK-OV-3 ovarian)?
The GI50 was 0.757 µM.

What about the TGI (SK-OV-3 ovarian) of the same compound?
The TGI was 16.4 µM.

What about the GI50 (SN12C renal) of the same compound?
The GI50 was 0.632 µM.

And the TGI (SN12C renal)?
Its TGI is 14.2 µM.

And the GI50 (SNB-19 CNS)?
Its GI50 is 0.726 µM.

And the TGI (SNB-19 CNS)?
Its TGI is 15.1 µM.

What about the GI50 (SNB-75 CNS) of the same compound?
The GI50 was 0.32 µM.

And the TGI (SNB-75 CNS)?
Its TGI is 1.39 µM.

And the GI50 (SR leukemia)?
The GI50 was 0.103 µM.

And the TGI (SR leukemia)?
Its TGI is 0.238 µM.

What about the GI50 (SW-620 colon) of the same compound?
Its GI50 is 0.336 µM.

And the TGI (SW-620 colon)?
The TGI was 11.1 µM.

What about the GI50 (T-47D breast) of the same compound?
The GI50 was 0.794 µM.

And the TGI (T-47D breast)?
The TGI was 17.7 µM.

What about the GI50 (TK-10 renal) of the same compound?
Its GI50 is 0.86 µM.

And the TGI (TK-10 renal)?
Its TGI is 10.3 µM.

And the GI50 (U251 glioblastoma)?
Its GI50 is 0.453 µM.

And the TGI (U251 glioblastoma)?
The TGI was 12.3 µM.

And the GI50 (UACC-257 melanoma)?
Its GI50 is 11.4 µM.

What about the TGI (UACC-257 melanoma) of the same compound?
Its TGI is 23.5 µM.

What about the GI50 (UACC-62 melanoma) of the same compound?
Its GI50 is 0.334 µM.

And the TGI (UACC-62 melanoma)?
Its TGI is 12 µM.

What about the GI50 (UO-31 renal) of the same compound?
Its GI50 is 0.781 µM.

What about the TGI (UO-31 renal) of the same compound?
The TGI was 2.08 µM.
